# Laboratory results reported in BindingDB's records for patent WO2023288264 (Blueprint Medicines, 2023).
# Several values for one entry are separate records, joined by “and”; a condition that tells them apart may be missing. Equal entries are not always repeated.
# Target: Mitogen-activated protein kinase kinase kinase kinase 1 (Homo sapiens, UniProt Q92918)
# Assay: MAP4K1 Biochemical Enzymatic Activity
# Procedure: Inhibitors were dissolved in 100% DMSO at a stock concentration of 10 mM. A 100X, 10-point, 4-fold serial dilution of each inhibitor was created in 100% DMSO either manually or on a Hamilton STAR liquid handler, starting at a relevant concentration, usually 1 mM. A volume of 0.130 µL of each concentration was transferred to the relevant wells of a 384-well plate (Greiner 781 201) in duplicate using a TTPLabtech Mosquito nano-litre dispenser. Using a Multidrop Combi, the remaining constituents of the kinase reaction were added to the 130 nL of dosed compound as follows (see table below for final reaction details):Enzyme activity assays at the APPKM for ATP or 1 mM ATP: In each well of a 384-well plate, 0.1 - 15 nM of untreated enzyme was incubated in a total of 13 µL of buffer (100 mM HEPES pH 7.5, 0.015% Brij 35, 10 mM MgCl2, 1mM DTT) with 1.5 µM fluorescent peptide and 20 - 1000 µM ATP, at 25 °C, for 60 - 180 minutes in the presence or absence of a dosed concentration series of compound (1% DMSO final concentration). The kinase reactions were stopped by the addition of 70 µl of Stop buffer (100 mM HEPES pH 7.5, 0.015% Brij 35, 35 mM EDTA and 0.2% of Coating Reagent 3 (Caliper Lifesciences)). The plates were read on a Caliper EZReader 2 as described above.
# Mitogen-activated protein kinase kinase kinase kinase 1, sequence (Q92918 whole entry): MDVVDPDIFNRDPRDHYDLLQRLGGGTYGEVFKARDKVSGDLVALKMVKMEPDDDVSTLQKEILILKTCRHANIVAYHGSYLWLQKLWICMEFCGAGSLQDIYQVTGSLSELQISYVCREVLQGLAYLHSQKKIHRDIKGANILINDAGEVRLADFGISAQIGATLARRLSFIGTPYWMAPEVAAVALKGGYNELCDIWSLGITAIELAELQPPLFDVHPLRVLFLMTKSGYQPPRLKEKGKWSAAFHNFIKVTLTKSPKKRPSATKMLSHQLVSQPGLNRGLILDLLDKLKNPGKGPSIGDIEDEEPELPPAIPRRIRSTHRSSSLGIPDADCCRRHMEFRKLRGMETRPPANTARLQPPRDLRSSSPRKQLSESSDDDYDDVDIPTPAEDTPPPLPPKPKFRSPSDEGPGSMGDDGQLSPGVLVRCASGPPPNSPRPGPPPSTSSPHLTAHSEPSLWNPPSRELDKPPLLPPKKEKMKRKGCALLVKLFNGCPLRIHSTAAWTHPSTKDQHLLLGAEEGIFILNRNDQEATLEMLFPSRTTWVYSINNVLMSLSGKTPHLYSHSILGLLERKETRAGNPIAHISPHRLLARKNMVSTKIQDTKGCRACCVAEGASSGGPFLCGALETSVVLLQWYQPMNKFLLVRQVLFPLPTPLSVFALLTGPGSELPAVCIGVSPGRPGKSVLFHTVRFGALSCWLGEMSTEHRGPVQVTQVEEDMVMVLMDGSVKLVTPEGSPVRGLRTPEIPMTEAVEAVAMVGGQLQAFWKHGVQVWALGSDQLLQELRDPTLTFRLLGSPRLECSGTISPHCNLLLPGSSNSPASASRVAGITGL
row,SMILES,IC50
1,"COc1ncc([C@@H](C)O)c2cc(Nc3ccnc(C(C)(C)F)n3)ncc12 [WO2023288264, Compound 1]",121 nM
2,"COc1ncc([C@H](C)O)c2cc(Nc3ccnc(C(C)(C)F)n3)ncc12 [WO2023288264, Compound 2]",64 nM
3,"COc1ncc(C(C)(C)O)c2cc(Nc3ccnc(N4CCCC4)n3)ncc12 [WO2023288264, Compound 9]",1.63 nM
4,"COc1ncc([C@@](C)(O)C(F)F)c2cc(Nc3ccnc(C(C)(C)F)n3)ncc12 [WO2023288264, Compound 11]",15 nM
5,"COc1ncc([C@](C)(O)C(F)F)c2cc(Nc3ccnc(C(C)(C)F)n3)ncc12 [WO2023288264, Compound 12]",47 nM
6,"CC[C@](C)(O)c1cnc(NC2CC2)c2cnc(Nc3ccc4c(n3)[C@@H](C)[C@H](C)OC4=O)cc12 [WO2023288264, Compound 20]",3.48 nM
7,"CC[C@@](C)(O)c1cnc(NC2CC2)c2cnc(Nc3ccc4c(n3)[C@@H](C)[C@H](C)OC4=O)cc12 [WO2023288264, Compound 21]",1.98 nM
8,"C[C@@H]1OC(=O)c2ccc(Nc3cc4c([C@@](C)(O)C5CC5)cnc(OC5CC5)c4cn3)nc2[C@H]1C [WO2023288264, Compound 25]",27 nM

# Further lines, results first:
row,IC50,SMILES
1,0.25 nM and 0.61 nM,"CC[C@@H](O)c1cnc(OC)c2cnc(Nc3ccc4c(n3)[C@@H](C)C(C)(C)OC4=O)cc12 [WO2023288264, Compound 14]"
2,3.06 nM,"CC[C@H](O)c1cnc(OC)c2cnc(Nc3ccc4c(n3)[C@@H](C)C(C)(C)OC4=O)cc12 [WO2023288264, Compound 15]"
3,0.3 nM,"CC[C@@](C)(O)c1cnc(OC)c2cnc(Nc3ccc4c(n3)[C@@H](C)C(C)(C)OC4=O)cc12 [WO2023288264, Compound 17]"
4,1.65 nM,"COC[C@@H](O)c1cnc(OC)c2cnc(Nc3ccc4c(n3)[C@@H](C)C(C)(C)OC4=O)cc12 [WO2023288264, Compound 18]"
5,14 nM,"COC[C@H](O)c1cnc(OC)c2cnc(Nc3ccc4c(n3)[C@@H](C)C(C)(C)OC4=O)cc12 [WO2023288264, Compound 19]"
6,3.34 nM,"CCOc1ncc([C@](C)(O)CC)c2cc(Nc3ccc4c(n3)[C@@H](C)C(C)(C)OC4=O)ncc12 [WO2023288264, Compound 23]"
7,0.39 nM,"CCOc1ncc([C@@](C)(O)CC)c2cc(Nc3ccc4c(n3)[C@@H](C)C(C)(C)OC4=O)ncc12 [WO2023288264, Compound 24]"
